From article PMC8072719, “Synthesis and Antiproliferative Activity of Triazoles Based on 2-Azabicycloalkanes” (Materials, 2021)
Read-outs that look alike come from different tables or passages of the source.

What was measured:
[1] = tested on: NCI-H1581; assay: Growth inhibition assay (SRB assay), lung tumor cell line NCI-H1581; type: cell-based, human; details: for IC50: Homo sapiens, NCI-H1581, 72 h, 72 h, SRB, mean ± SD; for SI (Selectivity Index): SI = IC50 for normal cell line BALB/3T3 / IC50 for NCI-H1581
Experimental: (§1) Three human cancer cell lines were used to evaluate the antiproliferative activity of the obtained compounds: melanoma cell line Hs294T, pancreatic tumor cell line MIA PaCa-2, and lung tumor cell line NCI-H1581. The normal mouse fibroblasts cell line (BALB/3T3 clone A31) was selected as reference. All these lines were purchased from the ATCC (American Type Culture Collection, Rockville, MD, USA). NCI-H1581 cells were grown in RPMI 1640 with GlutaMax medium (Gibco, Thermo Fisher Scientific, Leicestershire, UK) with 5% fetal bovine serum (FBS; HyClone, GE Healthcare, Logan, UT, USA). Hs294T and BALB/3T3 cells were grown in Dulbecco’s Modified Eagle Medium (DMEM; Gibco, Thermo Fisher Scientific, Leicestershire, UK) supplemented with 2 mM L-glutamine and 10% FBS (HyClone, GE Healthcare, Logan, UT, USA). MIA PaCa-2 cells were grown in DMEM (Gibco, Thermo Fisher Scientific, Leicestershire, UK) supplemented with 2 mM L-glutamine, 2.5% Horse Serum (Gibco, Thermo Fisher Scientific, Leicestershire, UK), and 10% FBS (HyClone, GE Healthcare, Logan, UT, USA). All culture media were supplemented with antibiotics: 100 U/mL penicillin (Polfa Tarchomin SA, Warsaw, Poland) and 100 µg/mL streptomycin (Sigma-Aldrich Chemie GmbH, Steinheim, Germany); cells were grown at 37 °C in a humid atmosphere with 5% CO2.
(§2) Twenty-four hours prior to the addition of the tested compounds, 2000 cells per well of Balb/3T3, MIA PaCa-2, and Hs294T cell lines and 2500 cells of NCI-H1581 cell line were seeded in 384-well plates (Greiner Bio-One, Kremsmünster, Austria) in an appropriate medium. The studied compounds were added to the cells at 8 different concentrations in a series of dilutions from 100 to 0.00001 µg/mL for 72 h. Cisplatin was applied as a reference compound (Teva Pharmaceuticals, Warsaw, Poland). DMSO (Sigma-Aldrich Chemie GmbH, Steinheim, Germany) was used as solvent control. The DMSO concentrations corresponded to the solvent concentrations in the tested compound solutions. Then, 30 µL per well of ice-cold 50% TCA (trichloroacetic acid, Avantor, Gliwice, Poland) was added to the cells. After one hour of incubation at room temperature (RT) cells were washed five times with water and stained with 0.4% SRB (sulforhodamine B, Sigma-Aldrich Chemie GmbH, Steinheim, Germany). Twenty-five microliters per well of 0.4% solution of SRB in 1% acetic acid (Avantor, Gliwice, Poland) was applied. After 0.5 h of incubation at RT, the unbound dye was washed out with 1% acetic acid. The bound dye in each well was dissolved in 70 µl of 10 mM TRIS (Tris base, Sigma-Aldrich, Chemie GmbH, Steinheim, Germany). A microplate reader (BioTek Synergy H4, Swindon, UK) with Gen5 software was used to read the absorbance at 540 nm. The results are presented as mean IC50 values (concentration of the compound that inhibits cell proliferation by 50%) ± standard deviation. Half-maximal inhibitory concentration (IC50) values were calculated using the Prolab-3 system based on Cheburator 0.4 [22]. Each experiment was performed in triplicate, and three independent repetitions were made for each experiment. Raw data and IC50 values were placed in the supplementary materials.

[2] = tested on: BALB/3T3 clone A31; assay: Growth inhibition assay (SRB assay), normal fibroblasts BALB/3T3 clone A31; type: cell-based, mouse; details: Mus musculus, BALB/3T3 clone A31, 72 h, mean ± SD
Experimental: as §1, §2

[3] = tested on: MIA PaCa-2; assay: Growth inhibition assay (SRB assay), pancreatic tumor cell line MIA PaCa-2; type: cell-based, human; details: Homo sapiens, mean ± SD
Experimental: as §1, §2

[4] = Solvability in DMSO (table footnote); type: physicochemical; parameters: key to solvability in dimethyl sulfoxide (DMSO): **: poor or no solvability in dimethyl sulfoxide (DMSO); key to solvability in DMSO: [b]: poor or no solvability in DMSO; details: for solvability in DMSO: supplement
[5] = tested on: Hs294T; assay: Growth inhibition assay (SRB assay), melanoma cell line Hs294T; type: cell-based, human; details: Homo sapiens, Hs 294T, 72 h, mean ± SD
Experimental: as §1, §2

[6] = supplement, read-out: IC50 NCI-H1581 (raw data)
[7] = normal cell line, read-out: IC50 BALB3T3
[8] = supplement, read-out: IC50 BALB3T3 (raw data)
[9] = MIA PaCa-2, 72 h, read-out: IC50 MIA PaCa-2
[10] = MIA PaCa-2, supplement, 72 h, read-out: IC50 MIA PaCa-2 (raw data)
[11] = supplement, read-out: IC50 Hs294T (raw data)
[12] = supplement, read-out: IC50 BALB3T3 (non-rounded data)
[13] = MIA PaCa-2, supplement, 72 h, read-out: IC50 MIA PaCa-2 (non-rounded data)
[14] = supplement, read-out: IC50 Hs294T (non-rounded data)
[15] = supplement, read-out: IC50 NCI-H1581 (non-rounded data)

SMILES	IC50 ([1]; read-out: IC50 NCI-H1581) [µM]	IC50 [1, 6]	SI (Selectivity Index) [1]	IC50 [2, 7] [µM]	IC50 [2, 8]	IC50 [3, 9] [µM]	IC50 [3, 10]	solvability in dimethyl sulfoxide (DMSO) [4]	solvability in DMSO [4]	IC50 ([5]; read-out: IC50 Hs294T) [µM]	IC50 [5, 11]	IC50 [2, 12] [µM]	IC50 [3, 13] [µM]	IC50 [5, 14] [µM]	IC50 [1, 15] [µM]
C[C@@H](c1ccccc1)N1C[C@H](n2cc(-c3ccc(-c4cn([C@H]5CN([C@@H](C)c6ccccc6)[C@H]6CC[C@@H]5C6)nn4)cc3)nn2)[C@@H]2CC[C@H]1C2 [Compound 15, 1,4-Bis-(1-((1S,4R,5R)-2-((S)-1-phenylethyl)-2-azabicyclo[3.2.1]octan-4-yl)-1H-1,2,3-triazol-4-yl) benzene]	6.87 ± 1.46	4.39 ± 0.93 µg/mL	9	59.5 ± 11.7	38 ± 7.48 µg/mL	111 ± 9.55	71.2 ± 6.1 µg/mL	15 **	[b]	58.8 ± 4.07	37.6 ± 2.6 µg/mL				
C[C@@H](c1ccccc1)N1C[C@@H](n2cc(-c3cccc(-c4cn([C@@H]5CN([C@@H](C)c6ccccc6)[C@H]6CC[C@@H]5C6)nn4)c3)nn2)[C@@H]2CC[C@H]1C2 [Compound 16, 1,3-Bis-(1-((1S,4S,5R)-2-((S)-1-phenylethyl)-2-azabicyclo[3.2.1]octan-4-yl)-1H-1,2,3-triazol-4-yl) benzene]	53.9 ± 5.07	34.5 ± 3.24 µg/mL		> 100	> 100 µM	> 100	> 100 µM	16 **	[b]	> 100	> 100 µM	> 100	> 100	> 100	
C[C@@H](c1ccccc1)N1C[C@H](n2cc(-c3cccc(-c4cn([C@H]5CN([C@@H](C)c6ccccc6)[C@H]6CC[C@@H]5C6)nn4)c3)nn2)[C@@H]2CC[C@H]1C2 [Compound 17, 1,3-Bis-(1-((1S,4R,5R)-2-((S)-1-phenylethyl)-2-azabicyclo[3.2.1]octan-4-yl)-1H-1,2,3-triazol-4-yl) benzene]	> 100	> 100 µM		> 100	> 100 µM	> 100	> 100 µM			> 100	> 100 µM	> 100	> 100	> 100	> 100
C[C@@H](c1ccccc1)N1C[C@@H](n2cc(COCc3cn([C@@H]4CN([C@@H](C)c5ccccc5)[C@H]5CC[C@@H]4C5)nn3)nn2)[C@@H]2CC[C@H]1C2 [Compound 12, (1S,1′S,4S,4′S,5R,5′R)-4,4′-(4,4′-(oxybis(methylene))bis(1H-1,2,3-triazole-4,1-diyl))bis(2-((S)-1-phenylethyl)-2-azabicyclo[3.2.1]octane)]	6 ± 0.86	3.64 ± 0.52 µg/mL	7	44.4 ± 7.5	26.9 ± 4.55 µg/mL	51.5 ± 1.6	31.2 ± 0.97 µg/mL			32.4 ± 7.83	19.7 ± 4.75 µg/mL				
C[C@@H](c1ccccc1)N1C[C@@H](n2cc(CO)nn2)[C@@H]2CC[C@H]1C2 [Compound 1, (1-((1S,4S,5R)-2-((S)-1-phenylethyl)-2-azabicyclo[3.2.1]octan-4-yl)-1H-1,2,3-triazol-4-yl)methanol]	> 100	> 100 µM		> 100	> 100 µM	> 100	> 100 µM			> 100	> 100 µM	> 100	> 100	> 100	> 100
C[C@@H](c1ccccc1)N1C[C@H](n2cc(CN(Cc3cn([C@H]4CN([C@@H](C)c5ccccc5)[C@H]5CC[C@@H]4C5)nn3)Cc3cn([C@H]4CN([C@@H](C)c5ccccc5)[C@H]5CC[C@@H]4C5)nn3)nn2)[C@@H]2CC[C@H]1C2 [Compound 19, N,N,N-tris((1-((1S,4R,5R)-2-((S)-1-phenylethyl)-2-azabicyclo[3.2.1]octan-4-yl)-1H-1,2,3-triazol-4-yl)methyl) amine]	3.27 ± 0.42	2.94 ± 0.38 µg/mL		27.7 ± 3.24	24.9 ± 2.92 µg/mL	31.8 ± 2.31	28.7 ± 2.08 µg/mL			29.1 ± 1.36	26.2 ± 1.22 µg/mL				
